Here are results for 31 compounds from US8802700B2 (Vertex Pharmaceuticals Incorporated, priority 2010, dated 2014).

The target of this test is T1, ΔF508-CFTR (Homo sapiens, UniProt P13569, DEL508-508).
T1 construct: expressed in transfected cells
T1 sequence (P13569 with tags, fused parts or gaps DEL508-508): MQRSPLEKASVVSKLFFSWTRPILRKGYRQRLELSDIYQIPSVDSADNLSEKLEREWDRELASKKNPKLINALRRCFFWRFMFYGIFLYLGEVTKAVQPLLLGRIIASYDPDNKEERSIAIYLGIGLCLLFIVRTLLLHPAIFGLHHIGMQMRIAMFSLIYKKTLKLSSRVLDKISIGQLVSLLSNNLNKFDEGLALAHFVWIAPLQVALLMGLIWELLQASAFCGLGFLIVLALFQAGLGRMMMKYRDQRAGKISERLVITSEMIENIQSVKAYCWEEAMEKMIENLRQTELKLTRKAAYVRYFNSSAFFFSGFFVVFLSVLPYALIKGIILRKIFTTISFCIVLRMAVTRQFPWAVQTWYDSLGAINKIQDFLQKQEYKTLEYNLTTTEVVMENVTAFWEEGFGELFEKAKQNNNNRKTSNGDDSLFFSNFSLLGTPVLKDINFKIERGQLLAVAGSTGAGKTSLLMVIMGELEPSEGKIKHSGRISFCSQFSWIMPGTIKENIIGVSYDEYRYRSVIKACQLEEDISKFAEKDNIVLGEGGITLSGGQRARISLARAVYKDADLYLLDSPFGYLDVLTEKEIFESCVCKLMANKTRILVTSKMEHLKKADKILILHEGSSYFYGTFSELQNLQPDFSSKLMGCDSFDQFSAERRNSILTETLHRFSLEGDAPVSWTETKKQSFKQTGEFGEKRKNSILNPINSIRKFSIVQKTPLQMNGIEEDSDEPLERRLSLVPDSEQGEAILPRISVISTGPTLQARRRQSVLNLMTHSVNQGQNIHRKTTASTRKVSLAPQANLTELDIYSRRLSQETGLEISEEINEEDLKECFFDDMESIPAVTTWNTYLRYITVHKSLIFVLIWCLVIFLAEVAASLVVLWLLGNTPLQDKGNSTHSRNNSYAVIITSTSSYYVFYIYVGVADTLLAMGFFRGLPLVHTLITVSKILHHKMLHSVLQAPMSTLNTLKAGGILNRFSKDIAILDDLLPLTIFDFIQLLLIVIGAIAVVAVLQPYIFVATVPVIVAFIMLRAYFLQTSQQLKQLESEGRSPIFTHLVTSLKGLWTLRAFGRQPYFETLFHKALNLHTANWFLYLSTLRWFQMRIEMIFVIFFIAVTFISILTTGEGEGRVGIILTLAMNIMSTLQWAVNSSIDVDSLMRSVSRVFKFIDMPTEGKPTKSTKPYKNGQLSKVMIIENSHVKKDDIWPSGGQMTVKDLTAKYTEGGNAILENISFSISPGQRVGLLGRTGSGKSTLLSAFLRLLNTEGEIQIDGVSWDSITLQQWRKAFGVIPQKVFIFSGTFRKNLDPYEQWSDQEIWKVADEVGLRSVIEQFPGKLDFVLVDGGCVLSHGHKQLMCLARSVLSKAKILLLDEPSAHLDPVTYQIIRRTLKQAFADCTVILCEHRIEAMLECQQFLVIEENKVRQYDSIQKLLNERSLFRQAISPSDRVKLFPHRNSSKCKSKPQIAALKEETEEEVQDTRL
Briefly: Membrane potential optical assay (FRET voltage-sensor dyes, VIPR), identification of potentiator compounds. The following applies: Table 3; assay not given; read-out: % Activity (% Efficacy, relative efficacy). Format: cell-based. The method, boiled down: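 NIH3T3 mouse fibroblasts stably expressing ΔF508-CFTR, cultured 24 h at 27 °C, were loaded with FRET voltage dyes CC2-DMPE and DiSBAC2(3). Double-addition format: first addition of Cl⁻-free (gluconate) medium with or without compound; membrane-potential change read as fluorescence on VIPR II.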
On to `O=C(Nc1ccc(Cl)cc1)c1c[nH]c2ccccc2c1=O` [Compound 405, N-(4-chlorophenyl)-4-oxo-1H-quinoline-3-carboxamide], for which the Emax was in the range of 25 to 100%. Take `Cc1ccc2c(c1)c(=O)c(C(=O)Nc1ccccc1-c1ccccc1)cn2C` [Compound 128, 1,6-dimethyl-4-oxo-N-(2-phenylphenyl)-1H-quinoline-3-carboxamide]: the Emax was less than 25%. For `O=C(Nc1cc(OCc2ccccc2)c(C2CCCCC2)cc1C(F)(F)F)c1c[nH]c2ccccc2c1=O` [Compound 654, N-[5-benzyloxy-4-cyclohexyl-2-(trifluoromethyl)phenyl]-4-oxo-1H-quinoline-3-carboxamide], the Emax lay in the range of 25 to 100%. For `CC(CO)(CO)c1ccc(NC(=O)c2c[nH]c3ccccc3c2=O)cc1` [Compound 590, N-[4-[2-hydroxy-1-(hydroxymethyl)-1-methyl-ethyl]phenyl]-4-oxo-1H-quinoline-3-carboxamide], the Emax was less than 25%. Turning to `O=C(Nc1cc(O)cc(C(F)(F)F)c1)c1c[nH]c2ccc(F)cc2c1=O` [Compound 574, 6-fluoro-N-[3-hydroxy-5-(trifluoromethyl)phenyl]-4-oxo-1H-quinoline-3-carboxamide], the Emax was 25 to 100%.

Consider `COc1ccc2[nH]cc(C(=O)Nc3cc(O)c(C(C)(C)C)cc3C(C)(C)C)c(=O)c2c1` [Compound 496, N-(5-hydroxy-2,4-ditert-butyl-phenyl)-6-methoxy-4-oxo-1H-quinoline-3-carboxamide], for which the Emax was in the range of 25 to 100%. Take `Cc1cccc(NC(=O)c2c[nH]c3ccccc3c2=O)c1` [Compound 449, N-(m-tolyl)-4-oxo-1H-quinoline-3-carboxamide]: the Emax was in the range of 25 to 100%. Take `CCc1cccc(NC(=O)c2c[nH]c3ccccc3c2=O)n1` [Compound 125, N-(6-ethyl-2-pyridyl)-4-oxo-1H-quinoline-3-carboxamide]: the Emax was 25 to 100%. Then `Cc1c(NC(=O)c2c[nH]c3ccccc3c2=O)cccc1C(F)(F)F` [Compound 387, N-[2-methyl-3-(trifluoromethyl)phenyl]-4-oxo-1H-quinoline-3-carboxamide], with 25 to 100%; and `CC1(C)CNc2cc(NC(=O)c3c[nH]c4ccccc4c3=O)ccc21` [Compound 386, N-(3,3-dimethylindolin-6-yl)-4-oxo-1H-quinoline-3-carboxamide], with 25 to 100%. For the compound `O=C(Nc1ccccc1-c1cc2ccccc2s1)c1c[nH]c2ccccc2c1=O` [Compound 172, N-(2-(benzo[b]thiophen-2-yl)phenyl)-1,4-dihydro-4-oxoquinoline-3-carboxamide], the Emax lay within 25 to 100%. Consider `O=C(Nc1ccccc1-c1ccc(C(F)(F)F)cc1)c1c[nH]c2ccccc2c1=O` [Compound 366, 4-oxo-N-[2-[4-(trifluoromethyl)phenyl]phenyl]-1H-quinoline-3-carboxamide], for which the Emax is 25 to 100%.

As for `CSc1nc2ccccc2c(O)c1C(=O)Nc1ccc2cc[nH]c2c1` [Compound 374, 4-hydroxy-N-(1H-indol-6-yl)-2-methylsulfanyl-quinoline-3-carboxamide], the Emax was less than 25%.

On to `CC(C)(C)c1cc(F)c(NC(=O)c2c[nH]c3c(C(F)(F)F)cccc3c2=O)cc1O` [Compound 638, N-(2-fluoro-5-hydroxy-4-tert-butyl-phenyl)-4-oxo-8-(trifluoromethyl)-1H-quinoline-3-carboxamide], for which the Emax was less than 25%. Take `Cc1ccc2c(c1)c(=O)c(C(=O)Nc1ccccc1)cn2C` [Compound 394, 1,6-dimethyl-4-oxo-N-phenyl-1H-quinoline-3-carboxamide]: the Emax is less than 25%. In the case of `Cc1cccc2c(=O)c(C(=O)Nc3cc(O)c(C(C)(C)C)cc3C(C)(C)C)c[nH]c12` [Compound 621, N-(5-hydroxy-2,4-ditert-butyl-phenyl)-8-methyl-4-oxo-1H-quinoline-3-carboxamide] it was less than 25%; in that of `O=C(Nc1ccc2ccn(Cc3ccccc3)c2c1)c1c[nH]c2ccccc2c1=O` [Compound 203, N-(1-benzyl-1H-indol-6-yl)-4-oxo-1H-quinoline-3-carboxamide], 25 to 100%; in that of `CC(C)(C)c1cc2cc[nH]c2cc1NC(=O)c1c[nH]c2ccccc2c1=O` [Compound 381, 4-oxo-N-(5-tert-butyl-1H-indol-6-yl)-1H-quinoline-3-carboxamide], 25 to 100%. As to `Cc1cc(C(C)(C)C)c(O)cc1NC(=O)c1c[nH]c2ccccc2c1=O` [Compound 518, N-(5-hydroxy-2-methyl-4-tert-butyl-phenyl)-4-oxo-1H-quinoline-3-carboxamide], the Emax was in the range of 25 to 100%. Regarding `CC(C)(C)c1cc(C(C)(C)C)c(NC(=O)c2c[nH]c3ccccc3c2=O)c(O)c1O` [Compound 220, N-(2,3-dihydroxy-4,6-ditert-butyl-phenyl)-4-oxo-1H-quinoline-3-carboxamide], the Emax was 25 to 100%. Consider `CC(C)(C)c1c[nH]c2cc(NC(=O)c3c[nH]c4ccccc4c3=O)ccc12` [Compound 478, 4-oxo-N-(3-tert-butyl-1H-indol-6-yl)-1H-quinoline-3-carboxamide], for which the Emax lay in the range of 25 to 100%. For `COc1ncc(-c2ccccc2NC(=O)c2c[nH]c3ccccc3c2=O)c(OC)n1` [Compound 97, N-[2-(2,4-dimethoxypyrimidin-5-yl)phenyl]-4-oxo-1H-quinoline-3-carboxamide], the Emax lay in the range of 25 to 100%. Then `O=C(Nc1cnc2ccccc2c1)c1c[nH]c2ccccc2c1=O` [Compound 75, 4-oxo-N-(3-quinolyl)-1H-quinoline-3-carboxamide], with less than 25%; and `COc1ccc(NC(=O)c2c[nH]c3ccccc3c2=O)cc1N` [Compound 378, N-(3-amino-4-methoxy-phenyl)-4-oxo-1H-quinoline-3-carboxamide], with 25 to 100%. Regarding `COc1cc(NC(=O)c2c[nH]c3ccccc3c2=O)ccc1-n1c(C)ccc1C` [Compound 560, N-[4-(2,5-dimethylpyrrol-1-yl)-3-methoxy-phenyl]-4-oxo-1H-quinoline-3-carboxamide], the Emax lay within 25 to 100%. With `CC(C)c1ccc(NC(=O)c2c[nH]c3ccccc3c2=O)cn1` [Compound 235, N-(6-isopropyl-3-pyridyl)-4-oxo-1H-quinoline-3-carboxamide], the Emax was in the range of 25 to 100%. With `CCc1ccc(NC(=O)c2c[nH]c3ccccc3c2=O)cc1N` [Compound 8, N-(3-amino-4-ethyl-phenyl)-4-oxo-1H-quinoline-3-carboxamide], the Emax lay in the range of 25 to 100%. With `CC(C)(C)c1ccc(NC(=O)c2c[nH]c3ccccc3c2=O)cc1O` [Compound 428, N-(3-hydroxy-4-tert-butyl-phenyl)-4-oxo-1H-quinoline-3-carboxamide], the Emax fell in the range of 25 to 100%. On to `CCCc1ccc(NC(=O)c2c[nH]c3ccccc3c2=O)cc1N` [Compound 160, N-(3-amino-4-propyl-phenyl)-4-oxo-1H-quinoline-3-carboxamide], for which the Emax was in the range of 25 to 100%. With `O=C(Nc1ccc(C(F)(F)F)c(O)c1)c1c[nH]c2c(Cl)cccc2c1=O` [Compound 716, 8-chloro-N-[3-hydroxy-4-(trifluoromethyl)phenyl]-4-oxo-1H-quinoline-3-carboxamide], the Emax was in the range of 25 to 100%. Regarding `O=C(Nc1ccncc1)c1c[nH]c2ccccc2c1=O` [Compound 53, 4-oxo-N-(4-pyridyl)-1H-quinoline-3-carboxamide], the Emax is less than 25%.
